Key:
[1] = molecular target: PRMT5/MEP50 complex (Homo sapiens, UniProt O14744); assay: Inhibition of recombinant N-terminal FLAG-tagged human full-length PRMT5/full length human MEP50 extracted from baculovirus expression system using [3H]-SAM as substrate preincubated for 15 mins followed by substrate addition and measured after 60 mins by multimode plate reader analysis
[2] = Oral bioavailability in Sprague-Dawley rat at 10 mg/kg by LC-MS/MS analysis; format: ADME, organism-based; settings: in vivo
[3] = Cmax in Sprague-Dawley rat at 10 mg/kg, po by LC-MS/MS analysis; format: ADME, organism-based; settings: in vivo
[4] = Half-life in Sprague-Dawley rat at 10 mg/kg, po by LC-MS/MS analysis; format: ADME, organism-based; settings: in vivo; for half-life: Sprague-Dawley
[5] = MRT (0 to t) in Sprague-Dawley rat at 2 mg/kg, iv by LC-MS/MS analysis; format: ADME, organism-based; settings: in vivo
[6] = Cmax in Sprague-Dawley rat at 2 mg/kg, iv by LC-MS/MS analysis; format: ADME, organism-based; settings: in vivo
[7] = AUC (0 to t) in Sprague-Dawley rat at 2 mg/kg, iv by LC-MS/MS analysis; format: ADME, organism-based; settings: in vivo
[8] = Half-life in Sprague-Dawley rat at 2 mg/kg, iv by LC-MS/MS analysis; format: ADME, organism-based; settings: in vivo
[9] = MRT (0 to t) in Sprague-Dawley rat at 10 mg/kg, po by LC-MS/MS analysis; format: ADME, organism-based; settings: in vivo
[10] = Clearance in Sprague-Dawley rat at 2 mg/kg, iv by LC-MS/MS analysis; format: ADME, organism-based; settings: in vivo
[11] = Volume of distribution in Sprague-Dawley rat at 2 mg/kg, iv by LC-MS/MS analysis; format: ADME, organism-based; settings: in vivo
[12] = Tmax in Sprague-Dawley rat at 10 mg/kg, po by LC-MS/MS analysis; format: ADME, organism-based; settings: in vivo
[13] = AUC (0 to t) in Sprague-Dawley rat at 10 mg/kg, po by LC-MS/MS analysis; format: ADME, organism-based; settings: in vivo; for AUC(0-t): Sprague-Dawley
[14] = tested on: Z-138; assay: Antiproliferative activity against human Z138 cells measured after 7 days by CellTiter-Glo luminescence cell viability assay; format: functional, cell-based; settings: Z-138, 168 h
[15] = molecular target: T1, Protein arginine N-methyltransferase 7 (Homo sapiens, UniProt Q9NVM4); assay: Inhibition of PRMT7 (unknown origin)
T1 sequence (Q9NVM4 whole entry): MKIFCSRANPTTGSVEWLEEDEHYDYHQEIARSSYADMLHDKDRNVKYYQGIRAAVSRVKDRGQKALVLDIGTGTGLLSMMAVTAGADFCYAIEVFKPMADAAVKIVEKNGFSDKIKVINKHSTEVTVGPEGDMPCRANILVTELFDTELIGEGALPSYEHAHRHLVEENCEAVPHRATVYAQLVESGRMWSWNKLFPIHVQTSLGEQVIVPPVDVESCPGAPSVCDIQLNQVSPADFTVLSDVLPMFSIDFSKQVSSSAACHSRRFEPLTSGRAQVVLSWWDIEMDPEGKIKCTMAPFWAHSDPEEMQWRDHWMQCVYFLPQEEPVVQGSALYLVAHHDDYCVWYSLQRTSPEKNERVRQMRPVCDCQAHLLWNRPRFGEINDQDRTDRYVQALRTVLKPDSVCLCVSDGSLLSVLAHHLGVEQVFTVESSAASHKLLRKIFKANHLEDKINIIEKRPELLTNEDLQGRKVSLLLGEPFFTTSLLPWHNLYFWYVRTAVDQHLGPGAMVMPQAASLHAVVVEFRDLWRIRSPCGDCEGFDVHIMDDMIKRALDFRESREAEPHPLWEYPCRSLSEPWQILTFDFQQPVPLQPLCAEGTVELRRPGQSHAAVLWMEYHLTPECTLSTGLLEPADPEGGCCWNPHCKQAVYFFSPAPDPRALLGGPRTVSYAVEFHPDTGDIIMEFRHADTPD

[16] = molecular target: Protein arginine N-methyltransferase 6 (Homo sapiens, UniProt Q96LA8); assay: Inhibition of PRMT6 (unknown origin)
[17] = molecular target: Protein arginine N-methyltransferase 8 (Homo sapiens, UniProt Q9NR22); assay: Inhibition of PRMT8 (unknown origin)
[18] = molecular target: Protein arginine N-methyltransferase 3 (Homo sapiens, UniProt O60678); assay: Inhibition of PRMT3 (unknown origin)
[19] = molecular target: T2, Histone-arginine methyltransferase CARM1 (Homo sapiens, UniProt Q86X55); assay: Inhibition of PRMT4 (unknown origin)
T2 sequence (Q86X55 whole entry): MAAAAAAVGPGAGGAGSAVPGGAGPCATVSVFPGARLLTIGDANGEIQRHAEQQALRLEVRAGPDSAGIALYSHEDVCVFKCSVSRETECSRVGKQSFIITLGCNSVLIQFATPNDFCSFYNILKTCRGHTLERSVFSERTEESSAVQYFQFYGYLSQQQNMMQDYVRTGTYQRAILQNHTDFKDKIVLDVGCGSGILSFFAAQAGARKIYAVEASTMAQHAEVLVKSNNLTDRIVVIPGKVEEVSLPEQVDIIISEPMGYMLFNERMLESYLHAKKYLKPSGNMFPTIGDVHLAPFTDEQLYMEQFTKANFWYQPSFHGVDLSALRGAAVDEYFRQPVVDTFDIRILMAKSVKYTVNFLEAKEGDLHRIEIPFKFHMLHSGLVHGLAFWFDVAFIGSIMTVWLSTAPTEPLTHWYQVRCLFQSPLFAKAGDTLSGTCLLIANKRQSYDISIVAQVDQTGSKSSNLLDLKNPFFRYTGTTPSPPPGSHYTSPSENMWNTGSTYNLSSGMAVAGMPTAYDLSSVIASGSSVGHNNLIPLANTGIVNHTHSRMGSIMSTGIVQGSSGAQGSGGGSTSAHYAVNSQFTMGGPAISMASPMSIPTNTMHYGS

[20] = molecular target: Voltage-gated inwardly rectifying potassium channel KCNH2 (Homo sapiens, UniProt Q12809); assay: Inhibition of human ERG; format: toxicity
Voltage-gated inwardly rectifying potassium channel KCNH2, sequence (Q12809 whole entry): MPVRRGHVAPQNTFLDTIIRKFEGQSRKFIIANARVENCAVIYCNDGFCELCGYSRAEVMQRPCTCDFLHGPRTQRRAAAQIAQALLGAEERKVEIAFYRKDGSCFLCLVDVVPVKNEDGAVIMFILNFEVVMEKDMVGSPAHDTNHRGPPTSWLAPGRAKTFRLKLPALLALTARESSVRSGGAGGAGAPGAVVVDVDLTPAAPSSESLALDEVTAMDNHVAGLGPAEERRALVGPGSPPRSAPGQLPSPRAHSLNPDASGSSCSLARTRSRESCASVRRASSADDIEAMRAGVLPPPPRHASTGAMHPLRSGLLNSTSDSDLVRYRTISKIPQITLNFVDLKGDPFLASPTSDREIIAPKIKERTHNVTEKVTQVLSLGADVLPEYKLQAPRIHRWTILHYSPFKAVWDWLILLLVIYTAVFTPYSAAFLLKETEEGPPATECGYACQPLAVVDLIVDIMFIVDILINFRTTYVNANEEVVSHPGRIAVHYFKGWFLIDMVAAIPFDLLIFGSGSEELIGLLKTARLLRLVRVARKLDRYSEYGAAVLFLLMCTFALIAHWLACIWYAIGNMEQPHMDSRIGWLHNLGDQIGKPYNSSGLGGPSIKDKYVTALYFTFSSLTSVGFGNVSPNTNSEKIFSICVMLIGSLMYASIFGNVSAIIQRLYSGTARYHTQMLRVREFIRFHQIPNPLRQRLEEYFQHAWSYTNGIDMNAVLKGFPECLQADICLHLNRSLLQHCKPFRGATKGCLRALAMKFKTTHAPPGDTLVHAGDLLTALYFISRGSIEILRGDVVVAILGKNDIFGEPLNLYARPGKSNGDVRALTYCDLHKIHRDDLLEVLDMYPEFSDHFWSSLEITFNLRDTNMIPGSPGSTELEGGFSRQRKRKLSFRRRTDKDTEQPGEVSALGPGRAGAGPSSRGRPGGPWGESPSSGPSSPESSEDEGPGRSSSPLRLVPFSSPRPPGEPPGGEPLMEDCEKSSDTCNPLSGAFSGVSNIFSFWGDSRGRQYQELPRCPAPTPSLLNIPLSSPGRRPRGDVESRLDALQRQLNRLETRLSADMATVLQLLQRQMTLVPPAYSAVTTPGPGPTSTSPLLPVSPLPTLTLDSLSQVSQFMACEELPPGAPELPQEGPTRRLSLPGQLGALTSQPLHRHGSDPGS

PRMT5/MEP50 complex, sequence (O14744 whole entry): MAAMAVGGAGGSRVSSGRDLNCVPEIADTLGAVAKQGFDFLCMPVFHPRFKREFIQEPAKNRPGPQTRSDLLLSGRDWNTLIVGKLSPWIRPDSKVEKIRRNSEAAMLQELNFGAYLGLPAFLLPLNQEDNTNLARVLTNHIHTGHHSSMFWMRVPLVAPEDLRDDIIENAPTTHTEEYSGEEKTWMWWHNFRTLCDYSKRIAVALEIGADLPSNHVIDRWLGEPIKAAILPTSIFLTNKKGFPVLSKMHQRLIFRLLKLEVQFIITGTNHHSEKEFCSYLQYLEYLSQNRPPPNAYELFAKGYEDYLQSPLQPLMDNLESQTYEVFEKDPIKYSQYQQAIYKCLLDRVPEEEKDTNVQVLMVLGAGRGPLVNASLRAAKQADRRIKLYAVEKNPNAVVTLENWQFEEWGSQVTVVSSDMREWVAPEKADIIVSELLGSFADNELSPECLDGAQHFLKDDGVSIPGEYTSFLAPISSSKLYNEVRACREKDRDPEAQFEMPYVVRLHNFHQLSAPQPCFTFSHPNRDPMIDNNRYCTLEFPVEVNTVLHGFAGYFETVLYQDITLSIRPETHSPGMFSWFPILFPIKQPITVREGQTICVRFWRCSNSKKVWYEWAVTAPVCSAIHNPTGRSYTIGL
PRMT5/MEP50 complex, sequence (Q9BQA1 whole entry, further chain): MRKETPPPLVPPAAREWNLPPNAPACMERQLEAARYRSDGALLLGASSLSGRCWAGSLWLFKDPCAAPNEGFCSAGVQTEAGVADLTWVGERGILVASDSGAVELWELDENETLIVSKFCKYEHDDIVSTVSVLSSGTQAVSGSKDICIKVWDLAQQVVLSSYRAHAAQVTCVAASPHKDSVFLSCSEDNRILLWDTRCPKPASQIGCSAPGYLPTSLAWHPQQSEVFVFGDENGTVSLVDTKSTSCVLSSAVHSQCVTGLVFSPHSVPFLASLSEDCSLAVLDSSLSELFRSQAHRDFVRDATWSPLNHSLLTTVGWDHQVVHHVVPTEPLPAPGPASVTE
Protein arginine N-methyltransferase 3, sequence (O60678 whole entry): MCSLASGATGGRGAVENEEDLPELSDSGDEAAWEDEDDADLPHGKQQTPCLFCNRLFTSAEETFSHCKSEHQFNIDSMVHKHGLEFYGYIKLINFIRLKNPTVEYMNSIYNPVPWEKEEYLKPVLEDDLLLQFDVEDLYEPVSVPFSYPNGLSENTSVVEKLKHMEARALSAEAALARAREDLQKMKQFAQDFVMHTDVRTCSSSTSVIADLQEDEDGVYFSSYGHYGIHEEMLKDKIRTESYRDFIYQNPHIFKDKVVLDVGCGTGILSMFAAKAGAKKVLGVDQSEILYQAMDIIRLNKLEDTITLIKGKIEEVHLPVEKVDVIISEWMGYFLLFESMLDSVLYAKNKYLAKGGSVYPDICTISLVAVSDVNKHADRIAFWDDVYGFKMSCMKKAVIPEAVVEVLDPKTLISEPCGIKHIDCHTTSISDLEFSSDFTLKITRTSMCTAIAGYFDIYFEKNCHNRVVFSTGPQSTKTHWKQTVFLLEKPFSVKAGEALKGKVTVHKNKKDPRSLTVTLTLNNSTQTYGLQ
Protein arginine N-methyltransferase 6, sequence (Q96LA8 whole entry): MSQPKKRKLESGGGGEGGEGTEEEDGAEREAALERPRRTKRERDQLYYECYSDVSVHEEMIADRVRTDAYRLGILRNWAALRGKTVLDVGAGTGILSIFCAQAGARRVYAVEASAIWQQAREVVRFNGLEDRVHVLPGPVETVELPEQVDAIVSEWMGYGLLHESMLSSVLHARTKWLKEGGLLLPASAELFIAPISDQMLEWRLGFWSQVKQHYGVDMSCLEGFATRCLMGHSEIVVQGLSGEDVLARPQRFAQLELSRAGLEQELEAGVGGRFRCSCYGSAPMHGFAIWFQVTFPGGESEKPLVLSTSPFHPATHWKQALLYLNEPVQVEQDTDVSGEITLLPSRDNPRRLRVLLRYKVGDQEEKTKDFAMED
Protein arginine N-methyltransferase 8, sequence (Q9NR22 whole entry): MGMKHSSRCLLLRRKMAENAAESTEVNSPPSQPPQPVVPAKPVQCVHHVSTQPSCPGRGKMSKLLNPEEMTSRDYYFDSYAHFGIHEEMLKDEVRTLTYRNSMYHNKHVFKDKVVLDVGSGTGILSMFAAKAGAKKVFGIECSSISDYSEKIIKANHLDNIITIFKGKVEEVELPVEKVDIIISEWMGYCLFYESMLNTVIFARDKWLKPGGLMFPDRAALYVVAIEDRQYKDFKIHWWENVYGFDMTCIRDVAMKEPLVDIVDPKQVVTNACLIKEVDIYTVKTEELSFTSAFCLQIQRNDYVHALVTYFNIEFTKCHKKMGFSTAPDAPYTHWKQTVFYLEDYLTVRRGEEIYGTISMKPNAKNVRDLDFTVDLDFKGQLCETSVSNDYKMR

CC(=O)N1CCC(C(=O)N2CCC3(CC2)C(=O)N(C[C@H](O)CN2CCc4ccccc4C2)c2ccccc23)CC1
IC50 [1]: 3060 nM

CC(=O)N1CCC(Nc2cc3c(cn2)C2(CC2)CN(C[C@H](O)CN2CCc4ccccc4C2)C3=O)CC1
bioavailability [2]: 16.4%
Cmax ([3]; Sprague-Dawley, read-out: Cmax): 145 ng/mL
half-life [4]: 24 min
MRT last [5]: 54 min
Cmax [6]: 678 ng/mL
AUC(0-t) [7]: 435 ng·h/mL
half-life [8]: 24 min
MRT last [9]: 12 min
clearance [10]: 38.3 mL/min/kg
Vd [11]: 3 L/kg
Tmax ([12]; Sprague-Dawley, read-out: Tmax): 24 min
AUC(0-t) [13]: 356 ng·h/mL
IC50 [14]: 3.07 nM

CC(=O)N1CCC(Nc2ccc3c(c2)N(C[C@H](O)CN2CCc4ccccc4C2)C(=O)C3)CC1
IC50 [1]: > 10000 nM

O=C1c2cc(NC3CCNCC3)ccc2C2(CC2)CN1C[C@H](O)CN1CCc2ccccc2C1
IC50 [1]: 9.01 nM
IC50 [14]: 588 nM

C[S+](CC[C@H](N)C(=O)[O-])C[C@H]1O[C@@H](n2cnc3c(N)ncnc32)[C@H](O)[C@@H]1O (some centres undefined) [ADEMETIONINE]
IC50 [15]: 491 nM
IC50 [16]: 1260 nM
IC50 [17]: 759 nM
IC50 [1]: 793 nM
IC50 [18]: 5170 nM
IC50 [19]: 42 nM

CC(=O)N1CCC(Nc2ccc3c(c2)C(=O)N(C[C@H](O)CN2CCc4ccccc4C2)CC32CCOC2)CC1 (some centres undefined)
IC50 [1]: 116 nM

O=C1c2cc(NS(=O)(=O)c3ccccc3)ccc2C2(CC2)CN1C[C@H](O)CN1CCc2ccccc2C1
IC50 [1]: 249 nM

CC(=O)N1CCC(C(=O)N2CCC3(CC2)CCN(C[C@H](O)CN2CCc4ccccc4C2)C3=O)CC1
IC50 [1]: > 10000 nM

CC(=O)N1CCC(C(=O)Nc2ccc3c(c2)C(=O)N(C[C@H](O)CN2CCc4ccccc4C2)CC32CCC2)CC1
IC50 [1]: 3.95 nM
IC50 [14]: 91.8 nM

CC(=O)N1CCC(Nc2ccc3c(c2)C(=O)N(C[C@H](O)CN2CCc4ccccc4C2)CC3)CC1
IC50 [1]: 37.5 nM
IC50 [14]: 14.3 nM

CC(=O)N1CCC(Nc2ccc3c(c2)C(=O)N(C[C@H](O)CN2CCc4ccccc4C2)CC32CCC2)CC1
bioavailability [2]: 23.4%
Cmax ([3]; Sprague-Dawley, read-out: Cmax): 840 ng/mL
half-life [4]: 210 min
MRT last [5]: 48 min
Cmax [6]: 1770 ng/mL
AUC(0-t) [7]: 1370 ng·h/mL
half-life [8]: 48 min
MRT last [9]: 132 min
IC50 [1]: 26.4 nM
clearance [10]: 25 mL/min/kg
Vd [11]: 1.6 L/kg
Tmax ([12]; Sprague-Dawley, read-out: Tmax): 18 min
AUC(0-t) [13]: 1600 ng·h/mL
IC50 [20]: 460 nM
IC50 [14]: 3.89 nM

Cn1cc(C(=O)Nc2ccc3c(c2)C(=O)N(C[C@H](O)CN2CCc4ccccc4C2)CC32CCC2)cn1
IC50 [1]: 16.1 nM
IC50 [14]: 318 nM

CC(=O)N1CCC(C(=O)Nc2ccc3c(c2)C(=O)N(C[C@H](O)CN2CCc4ccccc4C2)CC32CC2)CC1
IC50 [1]: 8.61 nM
IC50 [14]: 103 nM

O=C(Nc1ccc2c(c1)C(=O)N(C[C@H](O)CN1CCc3ccccc3C1)CC21CC1)C1CCOCC1
IC50 [1]: 16.7 nM
IC50 [14]: 282 nM

O=C1c2cc(NC3CCN(C(=O)C4CC4)CC3)ccc2C2(CCCC2)CN1C[C@H](O)CN1CCc2ccccc2C1
IC50 [1]: 45.5 nM
IC50 [14]: 20.5 nM

CC(=O)N1CCC(Nc2ccc3c(c2)CC(=O)N3C[C@H](O)CN2CCc3ccccc3C2)CC1
IC50 [1]: > 10000 nM

Cn1cc(C(=O)Nc2ccc3c(c2)C(=O)N(C[C@H](O)CN2CCc4ccccc4C2)CC32CC2)cn1
IC50 [1]: 9.89 nM
IC50 [14]: 292 nM

CC(=O)N1CCC(Nc2ccc3c(c2)C(=O)N(C[C@H](O)CN2CCc4ccccc4C2)CC32CC2)CC1
bioavailability [2]: 63.1%
Cmax ([3]; Sprague-Dawley, read-out: Cmax): 1150 ng/mL
half-life [4]: 54 min
MRT last [5]: 18 min
Cmax [6]: 1560 ng/mL
AUC(0-t) [7]: 464 ng·h/mL
half-life [8]: 24 min
MRT last [9]: 60 min
IC50 [1]: 18.3 nM
clearance [10]: 71.7 mL/min/kg
Vd [11]: 2.6 L/kg
Tmax ([12]; Sprague-Dawley, read-out: Tmax): 18 min
AUC(0-t) [13]: 1460 ng·h/mL
IC50 [14]: 4.33 nM

CC(=O)N1CCC(Nc2ccc3c(n2)C(=O)N(C[C@H](O)CN2CCc4ccccc4C2)CC32CC2)CC1
IC50 [1]: 86.9 nM
IC50 [14]: 279 nM

O=C(Nc1ccc2c(c1)C(=O)N(C[C@H](O)CN1CCc3ccccc3C1)CC21CC1)c1ccccc1
IC50 [1]: 10.6 nM
IC50 [14]: 400 nM

CC(=O)N1CCC(Nc2ccc3c(c2)C(=O)N(C[C@H](O)CN2CCc4ccccc4C2)CC32CCCC2)CC1
bioavailability [2]: 24.2%
Cmax ([3]; po, 10 mg/kg): 149.5 ng/mL
t1/2 ([4]; po, 10 mg/kg): 18 min
MRT last [5]: 60 min
Cmax [6]: 943 ng/mL
AUC(0-t) [7]: 656 ng·h/mL
half-life [8]: 78 min
MRT last [9]: 6 min
IC50 [1]: 22.6 nM
clearance [10]: 25 mL/min/kg
Vd [11]: 2.8 L/kg
Tmax ([12]; po, 10 mg/kg): 6 min
AUCt ([13]; po, 10 mg/kg): 794.2 ng·h/mL
IC50 [20]: 350 nM
IC50 [14]: 10.3 nM

— ChEMBL document CHEMBL6087464, “Design, Synthesis, and Biological Evaluation of 3,4-Dihydroisoquinolin-1(2H)-one Derivatives as Protein Arginine Methyltransferase 5 Inhibitors for the Treatment of Non-Hodgkin's Lymphoma” (J Med Chem, 2025)
